Reference: ChEMBL document CHEMBL2029243, “Potent and selective pyrazolo[1,5-a]pyrimidine based inhibitors of B-Raf(V600E) kinase with favorable physicochemical and pharmacokinetic properties” (Bioorg Med Chem Lett, 2012)
Values after ≈ are worked out from the molar mass of the structure shown.

How the values were obtained:
[1] = molecular target: T1, Serine/threonine-protein kinase B-raf (Homo sapiens, UniProt P15056, V600E)
[2] = molecular target: T1, Serine/threonine-protein kinase B-raf; remark: listed apart in the source
[3] = AUC in mouse at 30 mg/kg, po administered with 1% methylcellulose/0.5% Tween 80 in water; assay type: ADME, organism-based; design: dose 30 mg/kg, route oral; conditions: in vivo
[4] = Volume of distribution in mouse at […], iv and 30 mg/kg, po; assay type: ADME, organism-based; conditions: in vivo
[5] = Clearance in mouse at […], iv; assay type: ADME, organism-based; design: dose 2.5 mg/kg, route intravenous; conditions: in vivo
[6] = Aqueous solubility of the compound at pH 1.2; assay type: physicochemical; conditions: buffer
[7] = AUC in mouse at 30 mg/kg, po administered with 40/10/50 volume of PEG400/EtOH/H2O solution; assay type: ADME, organism-based; design: dose 30 mg/kg, route oral; conditions: plasma
[8] = Oral bioavailability in mouse at 30 mg/kg; assay type: ADME, organism-based; conditions: in vivo
[9] = physchem; conditions: buffer, pH 6.5
Description: Aqueous solubility of the compound at pH 6.5

[10] = physchem; conditions: buffer, pH 7.4
Description: Aqueous solubility of the compound at pH 7.4

[11] = in vitro; conditions: human, Caco-2
Description: Permeability across human Caco2 cells

T1 sequence (P15056 2-766 V600E limits assumed): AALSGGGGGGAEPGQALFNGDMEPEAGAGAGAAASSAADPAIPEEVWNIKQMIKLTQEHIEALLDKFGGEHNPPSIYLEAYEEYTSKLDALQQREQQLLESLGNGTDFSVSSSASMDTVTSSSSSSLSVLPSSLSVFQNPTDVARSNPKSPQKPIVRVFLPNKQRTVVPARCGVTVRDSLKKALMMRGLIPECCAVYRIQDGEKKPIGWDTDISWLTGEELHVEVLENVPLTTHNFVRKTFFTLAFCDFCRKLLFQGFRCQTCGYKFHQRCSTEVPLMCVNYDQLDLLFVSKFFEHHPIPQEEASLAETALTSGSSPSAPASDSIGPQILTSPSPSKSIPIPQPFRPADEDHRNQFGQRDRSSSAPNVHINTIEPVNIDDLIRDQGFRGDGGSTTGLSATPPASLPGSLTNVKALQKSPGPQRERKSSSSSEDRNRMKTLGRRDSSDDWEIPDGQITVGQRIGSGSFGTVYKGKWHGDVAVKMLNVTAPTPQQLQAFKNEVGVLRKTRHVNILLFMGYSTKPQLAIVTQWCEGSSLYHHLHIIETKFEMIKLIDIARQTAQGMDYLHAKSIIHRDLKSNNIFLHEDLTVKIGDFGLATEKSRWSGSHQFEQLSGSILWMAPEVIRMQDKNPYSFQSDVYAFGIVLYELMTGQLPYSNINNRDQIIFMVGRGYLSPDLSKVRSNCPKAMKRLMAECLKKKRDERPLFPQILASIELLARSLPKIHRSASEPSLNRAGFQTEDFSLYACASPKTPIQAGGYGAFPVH

Row | SMILES | IC50 [1] [nM] | IC50 [2] [nM] | further results
1 | CCCS(=O)(=O)Nc1ccc(F)c(C(=O)Nc2cnc3nccn3c2)c1F | > 10000 |  | 
2 | CCCS(=O)(=O)Nc1ccc(F)c(C(=O)Nc2cnc3cc(C)nn3c2)c1F | 131 | 248 | 
3 | CCCS(=O)(=O)Nc1ccc(F)c(C(=O)Nc2cnc3[nH]nc(OC)c3c2)c1F | 5 |  | AUC [3]: 105 µM·h; Vd [4]: 0.11 L/kg; clearance [5]: 1.3 mL/min/kg; solubility [6]: 3 µg/mL (≈ 7.05 µM); AUC [7]: 426 µM·h
4 | CCCS(=O)(=O)Nc1ccc(F)c(C(=O)Nc2cnc3cc(C(F)(F)F)nn3c2)c1F | 126 | 374 | 
5 | CCCS(=O)(=O)Nc1ccc(F)c(C(=O)Nc2cnc3cc(NC)nn3c2)c1F | 129 | 382 | 
6 | CCCS(=O)(=O)Nc1ccc(F)c(C(=O)Nc2cnc3cc(-c4ccc(F)cc4)nn3c2)c1F | 11 | 54 | 
7 | CCCS(=O)(=O)Nc1ccc(F)c(C(=O)Nc2cnc3cc(-c4cccnc4)nn3c2)c1F | 13 | 27 | 
8 | CCCS(=O)(=O)Nc1ccc(F)c(C(=O)Nc2cnc3cc(C4CCCC4)nn3c2)c1F | 128 | 448 | 
9 | CCCS(=O)(=O)Nc1ccc(F)c(C(=O)Nc2cnc3cc(C4CC4)nn3c2)c1F | 124 | 299 | 
10 | CCCS(=O)(=O)Nc1ccc(F)c(C(=O)Nc2cnc3cc(OCCOC)nn3c2)c1F | 67 | 110 | 
11 | CCCS(=O)(=O)Nc1ccc(F)c(C(=O)Nc2cnc3cc(CC)nn3c2)c1F | 105 | 228 | 
12 | CCCS(=O)(=O)Nc1ccc(F)c(C(=O)Nc2cnc3cc(-c4cccc(F)c4)nn3c2)c1F | 19 | 60 | 
13 | CCCS(=O)(=O)Nc1ccc(F)c(C(=O)Nc2cnc3ccnn3c2)c1F | 247 | 488 | 
14 | CCCS(=O)(=O)Nc1ccc(F)c(C(=O)Nc2cnc3cc(-c4cnn(C)c4)nn3c2)c1F | 13 | 48 | 
15 | CCCS(=O)(=O)Nc1ccc(F)c(C(=O)Nc2cnc3cc(OC(C)C)nn3c2)c1F | 149 | 449 | 
16 | CCCS(=O)(=O)Nc1ccc(F)c(C(=O)Nc2cnc3cc(N4CCOCC4)nn3c2)c1F | 174 | 315 | 
17 | CCCS(=O)(=O)Nc1ccc(F)c(C(=O)Nc2cnc3cc(OC)nn3c2)c1F | 43 | 68 | AUC [3]: 844 µM·h; Vd [4]: 0.16 L/kg; bioavailability [8]: 98%; solubility [9]: 21 µg/mL (≈ 49.4 µM); clearance [5]: 1 mL/min/kg; solubility [6]: 18 µg/mL (≈ 42.3 µM); solubility [10]: 32 µg/mL (≈ 75.2 µM); Papp [11]: 2 ×10⁻⁶ cm/s; AUC [7]: 733 µM·h
18 | CCCS(=O)(=O)Nc1ccc(F)c(C(=O)Nc2cnc3cc(N4CCCC4)nn3c2)c1F |  | 664 | 
19 | CCCS(=O)(=O)Nc1ccc(F)c(C(=O)Nc2cnc3cc[nH]c3c2)c1F | 407 | 1510 | 
20 | CCCS(=O)(=O)Nc1ccc(F)c(C(=O)Nc2cnc3cc(OCC)nn3c2)c1F | 83 | 205 | 
21 | CCCS(=O)(=O)Nc1ccc(F)c(C(=O)Nc2cnc3ccccc3c2)c1F | 464 | 1380 | 
22 | CCCS(=O)(=O)Nc1ccc(F)c(C(=O)Nc2cnc3cc(NC(C)C)nn3c2)c1F | 190 | 395 | 
23 | CCCS(=O)(=O)Nc1ccc(F)c(C(=O)Nc2cnc3occc3c2)c1F | > 10000 |  | 
